Entries after “also recorded” stand apart in the source; their conditions may differ.
B1: OsBLE1: OsBLE1 cDNA (SEQ ID NO: 1) inserted in antisense direction in binary vector pIG121-Hm under CaMV 35S promoter (nucleic acid, listed as Oryza sativa)
DNA: AATTCGGCACGAGCGGCGGCGAGAGGAGCGGCGGCGATGGGCGGCGGCGGGCACGGCGGCGGCACGACGTACAAGGGGTACACCATCCCCCACAACAAGCGCTGGCACACCGTCGCCGGCAAGGGCCTCTGCGCCGTCATGTGGTTTTGGGTTTTCTACAGGGCTAAGCAGGACGGTGCTGTTCTCTTGGGCATGCGTCATCCTTGGGATGGTCATGATGATCACTCACATGGTCATGGGCATGAGCATGAGGGATCATCATCAACATCGTCGTCTCACTAAATCAACTGCTTCTTGGCGGCTGAGGGAGACTCGCTGCTTTGGTTGTCGCGATGAAATCCTCGAAGATAATAAAGTTTCACACTATTAATTTTATTAAGATGGGTTCATGTTGTTGGCAACTGTTTAAGGCAAACTGGTTATGTATTTTGCTTTTGAGATAGCCTCCCTCGATGGAAAACCCATGTATGTTGTTGCTTATTAGGCTGTGGACATCCTTTTGGATGTAGAGGCTGGGTTTTTAATCCATTATCTAAAAAAATGTTGTTGCTTCTTCCGATCAAAAAAAAAAAAAAAAAAAAAAAAAAAAAAAAAAAAA
modifications: antisense orientation in binary vector under 35S promoter; cDNA

Key:
OsBLE1 and OsBLE2 genes = assay: Northern blotting analysis of OsBLE1 and OsBLE2 expression after plant hormone treatment; assay type: in vivo, Rice (Nipponbare); conditions: for expression of OsBLE1 and OsBLE2 following hormone treatment: leaf sheath and base of leaf blades, FIG. 2B-2C
Experimental: Rice (Nipponbare) was grown at 25° C. and 75% humidity with a 12-hrs day and 12-hrs night under white fluorescent light (about 600 μmol·m^−2sec^−1). Commercially available, high quality brassinolide (BL), gibberellin (GA), and indole-3-acetic acid (IAA) were used for the present invention. The method of Chomczynski and Sacchi (Chomczynski P., Sacchi N., Ana. Biochem., 162: 156–159, 1987) was used to extract RNA for RNA blotting analysis. An mRNA purification kit oligotex-dT-30 (Takara), was used to prepare mRNA for micro-array analysis. After tissue samples were quickly frozen in liquid nitrogen, about 0.5 g of the frozen tissue was ground into powder in a mortar and pestle. Total RNA was prepared by the method of Chomczynski and Sacchi (Chomczynski P., Sacchi N., Anal. Biochem., 162: 156–159, 1987). Then, mRNA for microarray analysis was purified from the total RNA using oligotexdT kit (Takara). For Northern blot analysis, 20 μg of the total RNA were electrophoresed in a 1.2% agarose gel containing 6% formaldehyde and then transferred to a Hybond™-N^+ nylon membrane. In order to ensure equivalent amount of RNAs were electrophoresed for Northern blotting, the present inventors stained gels with ethidium bromide to compare rRNA quantity. Hybridization was carried out at 42° C. overnight using ULTRAhyb™ (Ambion), and the membrane was washed with 2×SSC and 0.1% SDS at 42° C. for 5 min, and then with 0.1×SSC and 0.1% SDS at 68° C. for 15 min. Nylon membrane was exposed to X-ray film (Kodak). The expression patterns of the 12 genes were analyzed by Northern blotting. The present inventors then found two genes whose expression occurs one to six hours after brassinolide treatment and was increased in the leaf sheath and the base of leaf blades by auxin and brassinolide treatment (FIGS. 2A–2C). The present inventors named these two genes OsBLE1 and OsBLE2.

[1] = tested on: 1265 rice genes (EST clones); assay: cDNA microarray analysis of rice seedling leaf blade base after brassinolide treatment; assay type: in vivo, Rice (Nipponbare); conditions: base of leaf blades of rice seedling, 1 μM brassinolide, 48 hours; depending on the concentration
Experimental: Rice (Nipponbare) was grown at 25° C. and 75% humidity with a 12-hrs day and 12-hrs night under white fluorescent light (about 600 μmol·m^−2sec^−1). Commercially available, high quality brassinolide (BL), gibberellin (GA), and indole-3-acetic acid (IAA) were used for the present invention. The method of Chomczynski and Sacchi (Chomczynski P., Sacchi N., Ana. Biochem., 162: 156–159, 1987) was used to extract RNA for RNA blotting analysis. An mRNA purification kit oligotex-dT-30 (Takara), was used to prepare mRNA for micro-array analysis. A cDNA microarray containing 1265 EST clones was used. RNA was isolated from the base of leaf blades treated with 1 μM brassinolide for 48 hours. Reverse transcription reaction was performed for two hours at 42° C. using 1 μg of mRNA in the presence of 50 μM Cy5 dCTP (Amersham Pharmacia), and then stopped. After heated at 94° C. for 3 min, the resulting mixture was treated with NaOH at 37° C. for 15 min to digest the RNA, and then cDNA was recovered. Fluorescently labeled cDNA probe was purified using a QIA quick PCR purification kit (Qiagen). […] Data were analyzed according to Array Vision (Imaging Research). Total RNA was extracted from the base of leaf blades of rice (Nipponbare) seedling treated with 1 μM brassinolide, and the RNA was analyzed using cDNA microarrays containing 1265 rice genes. […]

Nipponbare rice cultivar = assay: Growth of rice transformed with antisense cDNA under CaMV 35S promoter; assay type: in vivo; conditions: antisense direction in pIG121-Hm, Agrobacterium EHA101, FIGS. 5B-5C
Text: Two different cDNAs were inserted into an expression vector in the antisense direction. The resulting vector was then introduced into Agrobacterium (EHA101). The resulting Agrobacterium was used to transform Nipponbare rice cultivar by the ultrahigh-speed transformation method for monocotyledons (Japanese Patent No. 3141084).
Both of cDNAs of OsBLE1 and OsBLE2 were modified to have SalI restriction site at their 5′ end and to have XbaI restriction sites at their 3′ ends. The modified cDNAs were then digested with XbaI and SalI and inserted into a binary vector pIG121-Hm (Ohta S., Mita S., Hattori T., Nakamura K., Plant Cell Physiol., 31: 805–813, 1990) at XbaI (5′ end) and SalI (3′ end) sites (in the antisense direction) under the control of cauliflower mosaic virus 35S promoter. The recombinant binary vectors were introduced into Agrobacterium EHA101, and the resulting Agrobacterium was introduced into Nipponbare rice cultivar by ultrahigh-speed transformation method for monocotyledons. […] Therefore, the present inventors have succeeded in dwarfing a transformed plant in which expression of a gene that is induced by addition of a plant hormone, brassinolide, is regulated.

| Molecule | expression of OsBLE1 and OsBLE2 following hormone treatment (OsBLE1 and OsBLE2 genes) | expression level of the 12 different genes [1] | time after treatment at which expression of OsBLE1 and OsBLE2 occurs / is induced (OsBLE1 and OsBLE2 genes; FIG. 2A) | growth of stem and leaf of transformed rice compared to controls containing the vector alone (Nipponbare rice cultivar) |
| --- | --- | --- | --- | --- |
| C=C1C[C@]23C[C@@]1(O)CC[C@H]2[C@@]12C=C[C@H](O)[C@@](C)(C(=O)O1)[C@H]2[C@@H]3C(=O)O [GA3, gibberellin] | increased |  |  |  |
| O=C(O)Cc1c[nH]c2ccccc12 [IAA, indole-3-acetic acid] | increased |  |  |  |
| CC(C)[C@H](C)[C@@H](O)[C@H](O)[C@@H](C)[C@H]1CC[C@H]2[C@@H]3COC(=O)[C@H]4C[C@H](O)[C@H](O)C[C@]4(C)[C@H]3CC[C@]12C [brassinolide] | increased | markedly increased | two to six; also recorded: one to six |  |
| OsBLE2: OsBLE2 cDNA (SEQ ID NO: 3) inserted in antisense direction in binary vector pIG121-Hm under CaMV 35S promoter |  |  |  | suppressed growth of stem and leaf |
| B1 |  |  |  | suppressed growth of stem and leaf |
